The source of these data is US8748415B2 (priority 2011, dated 2014).

For this assay, the system named is recombinant NL4-3 virus (Renilla luciferase in nef, Gag P373S). In words: HIV cell culture assay (luciferase activity in MT-2 cells infected with NLRluc recombinant virus). Type of assay: cell-based. The settings on record: NL43, MT-2 cells infected 4-5 days with NLRluc recombinant virus, class symbol. In a few lines:
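Activity was read as luciferase output (Dual Luciferase reagents premixed with lysis solution) after 4–5 days of infection in serially diluted inhibitor. Host cells were MT-2 in 10% FBS RPMI. The reporter virus came from transfected 293T cells and was titered on MT-2.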

The EC50 is the concentration at which the effect is half-maximal. For `C=C(C)[C@@H]1CC[C@]2(CNCCC(=O)N3CCC(F)(F)C3)CC[C@]3(C)[C@H](CC[C@@H]4[C@@]5(C)CC=C(c6ccc(C(=O)O)cc6)C(C)(C)[C@@H]5CC[C@]43C)[C@@H]12` [Example 103, 4-((1R,3aS,5aR,5bR,7aR,11aS,11bR,13aR,13bR)-3a-((3-(3,3-difluoropyrrolidin-1-yl)-3-oxopropylamino)methyl)-5a,5b,8,8,11a-pentamethyl-1-(prop-1-en-2-yl)-2,3,3a,4,5,5a,5b,6,7,7a,8,11,11a,11b,12,13,13a,13b-octadecahydro-1H-cyclopenta[a]chrysen-9-yl)benzoic acid], the EC50 was < 0.1 µM.

On to `C=C(C)[C@@H]1CC[C@]2(CNCCC(=O)N3CCC[C@H]3C(=O)OC)CC[C@]3(C)[C@H](CC[C@@H]4[C@@]5(C)CC=C(c6ccc(C(=O)O)cc6)C(C)(C)[C@@H]5CC[C@]43C)[C@@H]12` [Example 101, 4-((1R,3aS,5aR,5bR,7aR,11aS,11bR,13aR,13bR)-3a-((3-((S)-2-(methoxycarbonyl)pyrrolidin-1-yl)-3-oxopropylamino)methyl)-5a,5b,8,8,11a-pentamethyl-1-(prop-1-en-2-yl)-2,3,3a,4,5,5a,5b,6,7,7a,8,11,11a,11b,12,13,13a,13b-octadecahydro-1H-cyclopenta[a]chrysen-9-yl)benzoic acid], for which the EC50 is < 0.1 µM.

With `C=C(C)[C@@H]1CC[C@]2(CNCCS(=O)(=O)N3CCNCC3)CC[C@]3(C)[C@H](CC[C@@H]4[C@@]5(C)CC=C(c6ccc(C(=O)O)cc6)C(C)(C)[C@@H]5CC[C@]43C)[C@@H]12` [Example 43, 4-((1R,3aS,5aR,5bR,7aR,11aS,11bR,13aR,13bR)-5a,5b,8,8,11a-pentamethyl-3a-((2-(piperazin-1-ylsulfonyl)ethylamino)methyl)-1-(prop-1-en-2-yl)-2,3,3a,4,5,5a,5b,6,7,7a,8,11,11a,11b,12,13,13a,13b-octadecahydro-1H-cyclopenta[a]chrysen-9-yl)benzoic acid], the EC50 was < 0.1 µM.

Regarding `C=C(C)[C@@H]1CC[C@]2(CNCCN3CCS(=O)(=O)CC3)CC[C@]3(C)[C@H](CC[C@@H]4[C@@]5(C)CC=C(c6ccc(C(=O)O)cc6F)C(C)(C)[C@@H]5CC[C@]43C)[C@@H]12` [Example 94, 4-((1R,3aS,5aR,5bR,7aR,11aS,11bR,13aR,13bR)-3a-(((2-(1,1-dioxido-4-thiomorpholinyl)ethyl)amino)methyl)-1-isopropenyl-5a,5b,8,8,11a-pentamethyl-2,3,3a,4,5,5a,5b,6,7,7a,8,11,11a,11b,12,13,13a,13b-octadecahydro-1H-cyclopenta[a]chrysen-9-yl)-3-fluorobenzoic acid], the EC50 is < 0.1 µM.

As for `C=C(C)[C@@H]1CC[C@]2(CNCCC(=O)N3CCC4(CCN(C)C4=O)CC3)CC[C@]3(C)[C@H](CC[C@@H]4[C@@]5(C)CC=C(c6ccc(C(=O)O)cc6)C(C)(C)[C@@H]5CC[C@]43C)[C@@H]12` [Example 123, 4-((1R,3aS,5aR,5bR,7aR,11aS,11bR,13aR,13bR)-5a,5b,8,8,11a-pentamethyl-3a-((3-(2-methyl-1-oxo-2,8-diazaspiro[4.5]decan-8-yl)-3-oxopropylamino)methyl)-1-(prop-1-en-2-yl)-2,3,3a,4,5,5a,5b,6,7,7a,8,11,11a,11b,12,13,13a,13b-octadecahydro-1H-cyclopenta[a]chrysen-9-yl)benzoic acid], the EC50 was < 0.1 µM.

As to `C=C(C)[C@@H]1CC[C@]2(CNCCC(=O)N3CCS(=O)(=O)C3)CC[C@]3(C)[C@H](CC[C@@H]4[C@@]5(C)CC=C(c6ccc(C(=O)O)cc6)C(C)(C)[C@@H]5CC[C@]43C)[C@@H]12` [Example 120, 4-((1R,3aS,5aR,5bR,7aR,11aS,11bR,13aR,13bR)-3a-(((3-(1,1-dioxido-1,3-thiazolidin-3-yl)-3-oxopropyl)amino)methyl)-1-isopropenyl-5a,5b,8,8,11a-pentamethyl-2,3,3a,4,5,5a,5b,6,7,7a,8,11,11a,11b,12,13,13a,13b-octadecahydro-1H-cyclopenta[a]chrysen-9-yl)benzoic acid], the EC50 was < 0.1 µM.

As to `C=C(C)[C@@H]1CC[C@]2(CNCC(=O)N3CCN(S(=O)(=O)N(C)C)CC3)CC[C@]3(C)[C@H](CC[C@@H]4[C@@]5(C)CC=C(c6ccc(C(=O)O)cc6)C(C)(C)[C@@H]5CC[C@]43C)[C@@H]12` [Example 113, 4-((1R,3aS,5aR,5bR,7aR,11aS,11bR,13aR,13bR)-3a-((2-(4-(N,N-dimethylsulfamoyl)piperazin-1-yl)-2-oxoethylamino)methyl)-5a,5b,8,8,11a-pentamethyl-1-(prop-1-en-2-yl)-2,3,3a,4,5,5a,5b,6,7,7a,8,11,11a,11b,12,13,13a,13b-octadecahydro-1H-cyclopenta[a]chrysen-9-yl)benzoic acid], the EC50 is < 0.1 µM.

`C=C(C)[C@@H]1CC[C@]2(CNC/C=C/CN3CCS(=O)(=O)CC3)CC[C@]3(C)[C@H](CC[C@@H]4[C@@]5(C)CC=C(c6ccc(C(=O)O)cc6)C(C)(C)[C@@H]5CC[C@]43C)[C@@H]12` [Example 73, 4-((1R,3aS,5aR,5bR,7aR,11aS,11bR,13aR,13bR)-3a-((((2E)-4-(1,1-dioxido-4-thiomorpholinyl)-2-buten-1-yl)amino)methyl)-1-isopropenyl-5a,5b,8,8,11a-pentamethyl-2,3,3a,4,5,5a,5b,6,7,7a,8,11,11a,11b,12,13,13a,13b-octadecahydro-1H-cyclopenta[a]chrysen-9-yl)benzoic acid]: the EC50 was < 0.1 µM.
